PubChem BioAssay (NCI)
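A five-concentration, 48-hour dose response in 96-well plates underlies each endpoint, interpolated linearly between surrounding concentrations. GI50 = concentration required for 50% inhibition of growth. TGI denotes the concentration required for complete inhibition of growth.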

Experiments:
Test in all cases: NCI-60 cell line screen, 48 h
[1] = test system: SR leukemia
[2] = test system: TK-10 renal
[3] = test system: HOP-92 NSCLC
[4] = test system: BT-549 breast
[5] = test system: NCI-H23 lung
[6] = test system: SK-MEL-5 melanoma
[7] = test system: SK-OV-3 ovarian
[8] = test system: SN12C renal
[9] = test system: PC-3 prostate
[10] = test system: UO-31 renal

CNC(=O)NC(CCCCNC(=O)OCc1ccccc1)C(=O)OCc1ccccc1 (stereo not given)
TGI [1]: 99.5 µM
TGI [2]: 99 µM
TGI [3]: 45.3 µM
TGI [4]: > 100 µM
TGI [5]: > 100 µM
TGI [6]: 31.5 µM
TGI [7]: > 100 µM
TGI [8]: > 84.6 µM
TGI [9]: > 100 µM
TGI [10]: 98.3 µM

COc1ccc(OC)c(/C=C2\COc3ccc(O)c(O)c3C2=O)c1
GI50 [1]: 1.36 µM
TGI [1]: > 100 µM
GI50 [2]: 4 µM
TGI [2]: 14.3 µM
GI50 [3]: 2.8 µM
TGI [3]: 8.86 µM
GI50 [4]: 1.71 µM
TGI [4]: 6.71 µM
GI50 [5]: 2.44 µM
TGI [5]: 7.3 µM
GI50 [6]: 1.75 µM
TGI [6]: 3.28 µM
GI50 [7]: 6.94 µM
TGI [7]: 22.5 µM
GI50 [8]: 2.55 µM
TGI [8]: 11.7 µM
GI50 [9]: 1.82 µM
TGI [9]: 6.82 µM
GI50 [10]: 1.22 µM
TGI [10]: 2.6 µM

O=C(O)c1c[nH]c2c(OCc3ccccc3)c3ccccc3c(O)c2c1=O
GI50 [1]: 28.3 µM
TGI [1]: 59.6 µM
GI50 [2]: 22.8 µM
TGI [2]: 43.4 µM
GI50 [5]: 3.22 µM
TGI [5]: 14.3 µM
GI50 [7]: 23.7 µM
TGI [7]: 85.6 µM
GI50 [8]: 11.3 µM
TGI [8]: 23.3 µM
GI50 [9]: 15.1 µM
TGI [9]: 45.9 µM
GI50 [10]: 20 µM
TGI [10]: > 100 µM

Cc1ccc(NC2=C(Cl)C(=O)N(Cc3ccccc3)C2=O)cc1Cl
GI50 [1]: 1.19 µM
TGI [1]: 5.75 µM
GI50 [2]: 9.13 µM
TGI [2]: 24.3 µM
GI50 [4]: 1.68 µM
TGI [4]: 14.9 µM
GI50 [5]: 4.13 µM
TGI [5]: 14.6 µM
GI50 [6]: 5.64 µM
TGI [6]: 19.1 µM
GI50 [7]: 19.4 µM
TGI [7]: > 100 µM
GI50 [8]: 3.4 µM
TGI [8]: 15.8 µM
GI50 [9]: 1.99 µM
TGI [9]: 8.84 µM
GI50 [10]: 3.33 µM
TGI [10]: 15.9 µM

N#C/C(=C1C=C/C(=N\O)C(Cl)=C\1)c1ccccc1
GI50 [1]: 1.8 µM
TGI [1]: 11.3 µM
GI50 [2]: 5.12 µM
TGI [2]: 16.4 µM
GI50 [4]: 4.36 µM
TGI [4]: 16.2 µM
GI50 [5]: 5.61 µM
TGI [5]: 65.6 µM
GI50 [6]: 3.05 µM
TGI [6]: 10.3 µM
GI50 [7]: 3.77 µM
TGI [7]: 14.4 µM
GI50 [8]: 3.19 µM
TGI [8]: 13 µM
GI50 [9]: 0.688 µM
TGI [9]: 11.7 µM
GI50 [10]: 1.74 µM
TGI [10]: 17.1 µM

Cc1sc(NC2=NC(=O)/C(=C\c3ccccc3)S2)nc1-c1nc(NC2=NC(=O)/C(=C\c3ccccc3)S2)sc1C
GI50 [1]: 7.49 µM
TGI [1]: 21.4 µM
GI50 [2]: 7.19 µM
TGI [2]: 22.7 µM
GI50 [3]: 12 µM
TGI [3]: > 36.1 µM
GI50 [4]: 18.4 µM
TGI [4]: > 50 µM
GI50 [5]: 15.4 µM
TGI [5]: > 41.4 µM
GI50 [6]: 13.1 µM
TGI [6]: > 34.5 µM
GI50 [8]: 11.4 µM
TGI [8]: 29.8 µM
GI50 [9]: 16.7 µM
TGI [9]: > 50 µM
GI50 [10]: 24.9 µM
TGI [10]: > 44.4 µM

C=C(C)[C@@H]1CC[C@]2(C(=O)O)CC[C@]3(C)[C@H](CC[C@@H]4[C@@]5(C)C/C(=C/c6ccc(OC)cc6)C(=O)C(C)(C)[C@@H]5CC[C@]43C)[C@@H]12
GI50 [2]: 2.6 µM
TGI [2]: 20.7 µM
GI50 [3]: 0.738 µM
TGI [3]: 3.36 µM
GI50 [4]: 1.89 µM
TGI [4]: 4.34 µM
GI50 [5]: 2.44 µM
TGI [5]: 8.25 µM
GI50 [6]: 2.03 µM
TGI [6]: 4.12 µM
GI50 [7]: 3.29 µM
TGI [7]: 16.1 µM
GI50 [8]: 2.07 µM
TGI [8]: 5.9 µM
GI50 [9]: 1.74 µM
TGI [9]: 8.24 µM
GI50 [10]: 1.45 µM
TGI [10]: 4.42 µM

COc1ccc(-c2nc(N3CCOCC3)c3sc(CN(C)c4ncc(C(=O)NO)cn4)cc3n2)cn1
GI50 [1]: < 0.01 µM
TGI [1]: 0.234 µM
GI50 [3]: 0.0147 µM
TGI [3]: 0.0508 µM
GI50 [4]: 0.014 µM
TGI [4]: 0.15 µM
GI50 [5]: 0.0103 µM
TGI [5]: 0.601 µM
GI50 [8]: 0.0168 µM
TGI [8]: 1.27 µM
GI50 [9]: < 0.01 µM
TGI [9]: 0.112 µM
GI50 [10]: < 0.01 µM
TGI [10]: 0.0705 µM

O=C(NC1CCCCC1)NS(=O)(=O)c1ccc(-n2nc3c(c2-c2ccc(Cl)cc2)Cc2ccccc2-3)cc1
GI50 [2]: 13.3 µM
TGI [2]: 26.9 µM
GI50 [3]: 6.45 µM
TGI [3]: 25 µM
GI50 [4]: 3.52 µM
TGI [4]: 17.3 µM
GI50 [6]: 12.1 µM
TGI [6]: 40.2 µM
GI50 [7]: 31.6 µM
TGI [7]: > 100 µM
GI50 [8]: 7.54 µM
TGI [8]: 30.3 µM
GI50 [9]: 6.28 µM
TGI [9]: 24.4 µM
GI50 [10]: 3.64 µM
TGI [10]: 8.67 µM

Cc1cc(=O)oc2c(OS(C)(=O)=O)c(OS(C)(=O)=O)ccc12
TGI [1]: > 100 µM
TGI [2]: > 100 µM
TGI [3]: > 100 µM
TGI [4]: > 100 µM
TGI [5]: > 100 µM
TGI [6]: > 100 µM
TGI [8]: > 100 µM
TGI [9]: > 100 µM
TGI [10]: > 100 µM

CCn1c(-c2nonc2N)nc2cncc(C(=O)NCCNC)c21
GI50 [1]: 4.53 µM
TGI [1]: > 25 µM
GI50 [2]: 0.612 µM
TGI [2]: 4.64 µM
GI50 [4]: 3.13 µM
TGI [4]: > 22.3 µM
GI50 [5]: 9.32 µM
TGI [5]: > 25 µM
GI50 [6]: > 16 µM
TGI [6]: > 25 µM
GI50 [7]: 17.3 µM
TGI [7]: > 25 µM
GI50 [8]: > 25 µM
TGI [8]: > 25 µM
GI50 [9]: > 25 µM
TGI [9]: > 25 µM
GI50 [10]: 0.684 µM
TGI [10]: 5.77 µM

CCC[CH2][Sn]1([CH2]CCC)[O]CC(CN2CCOCC2)[O]1 (stereo not given)
GI50 [1]: 1.56 µM
TGI [1]: 6.13 µM
GI50 [2]: 4.02 µM
TGI [2]: 12.1 µM
GI50 [3]: 3.7 µM
TGI [3]: 14 µM
GI50 [5]: 2.41 µM
TGI [5]: 6.13 µM
GI50 [6]: 5.4 µM
TGI [6]: 18.2 µM
GI50 [7]: 12.3 µM
TGI [7]: 25.8 µM
GI50 [8]: 5.02 µM
TGI [8]: 16.7 µM
GI50 [10]: 10.1 µM
TGI [10]: 21.7 µM

CN(C)C1=NC2=S(SC(Nc3ccccc3)=N2)S1 (stereo not given)
TGI [1]: > 100 µM
TGI [2]: 85.5 µM
TGI [3]: 59.8 µM
TGI [5]: > 100 µM
TGI [6]: 28.8 µM
TGI [7]: 90.4 µM
TGI [8]: > 100 µM
TGI [10]: 61.1 µM

COc1cc(Nc2nc3cc(C(F)(F)F)ccc3nc2-c2ccccc2)cc(OC)c1OC
TGI [1]: > 100 µM
TGI [2]: 77 µM
TGI [3]: 20.7 µM
TGI [5]: > 100 µM
TGI [6]: > 100 µM
TGI [7]: > 100 µM
TGI [8]: > 100 µM
TGI [10]: > 100 µM
